Experimental data published in patent US20260091123A1, “COMBINATION OF ANTI-B7-H3 ANTIBODY-DRUG CONJUGATE AND ATR INHIBITOR OR ATM INHIBITOR” (DAIICHI SANKYO COMPANY, LIMITED, priority 2023, published 2026).

Key:
[1] = test system: human prostate carcinoma epithelial cell line, 22Rv1; assay: In vivo antitumor activity, combination with ATM inhibitor, 22Rv1 xenograft (Test Example 5); set-up: species or system mice; settings: day 29
Method: All animal experiments were performed in accordance with the in-house guidelines of the Institutional Animal Care and Use Committee of Daiichi Sankyo Co., Ltd. The human prostate carcinoma epithelial cell line, 22Rv1 was purchased from American Type Culture Collection (ATCC) and cultured in RPMI 1640 Medium (ATCC modification) (Thermo Fisher Scientific) supplemented with 10% heat-inactivated fetal bovine serum (FBS, cytiva) at 37° C. in a humidified 5% CO2 atmosphere. On the day of cancer cell inoculation, 22Rv1 cells were trypsinized, washed with D-PBS, and then resuspended in D-PBS at a concentration of 5×10^7 cells/mL. Castrated male NSG mice (NOD.Cg-Prkdc^scid Il2rg^tm1Wj1/SzJ, 6 weeks of age, The Jackson Laboratory Japan, Inc.) were subcutaneously inoculated with 22Rv1 cells (5×10^6 cells/mouse) into the right flank. […] Vehicle control • Group 2: AZD1390 20 mg/kg • Group 3: […] A (10 mmol/L histidine buffer [pH5.9] containing 9% sucrose and 0.02% polysorbate 20) to prepare a 0.3 mg/mL dosing solution. To prepare a 2.0 mg/mL dosing solution, AZD1390 was dissolved in Soln. […] The volume of each dosing solution to be administered was calculated from the individual body weight measured on the day of dosing. […] Tumor length and tumor width were measured with a digital caliper. Tumor volume and tumor growth inhibition (TGI) were calculated by the following formulas: […] […]

[2] = test system: human prostate carcinoma epithelial cell line, 22Rv1; assay: In vivo antitumor activity, combination with ATR inhibitor, 22Rv1 xenograft (Test Example 4); set-up: species or system mice; settings: day 24
Method: All animal experiments were performed in accordance with the in-house guidelines of the Institutional Animal Care and Use Committee of Daiichi Sankyo Co., Ltd. […] Vehicle control • Group 2: AZD6738 25 mg/kg • Group 3: […] A (10 mmol/L histidine buffer [pH5.9] containing 9% sucrose and 0.02% polysorbate 20) to prepare a 0.3 mg/mL dosing solution. […] Then, propylene glycol (40% [v/v] of total volume of the dosing solution) was added to the solution. After mixing with a magnetic stirrer well, water for injection (50% [v/v] of total volume of the dosing solution) was added to the solution, and then the solution was further mixed well with a magnetic stirrer. The volume of each dosing solution to be administered was calculated based on the individual body weight measured on the day of dosing. Soln. […] Soln. […] Tumor length and tumor width were measured with a digital caliper. Tumor volume and tumor growth inhibition (TGI) were calculated by the following formulas: […] Dunnett's test was used to compare tumor volumes in monotherapy groups with those in the vehicle control and to compare tumor volumes in monotherapy groups with those in the combination group. […] The following calculation of TGI and statistical analyses were performed using data except for the excluded mouse in Group 4.

Row | Compound | tumor growth inhibition (TGI) ([1]; 22Rv1 in castrated male NSG mice, AZD1390 20 mg/kg orally, conjugate (1) 3 mg/kg iv days 0 and 14) | tumor growth / antitumor activity compared with the vehicle control ([1]; monotherapies, Dunnett's test) | tumor growth inhibition (TGI) ([2]; 22Rv1 in castrated male NSG mice, AZD6738 25 mg/kg orally twice a day, conjugate (1) 3 mg/kg iv days 0 and 15) | tumor growth compared with the vehicle control ([2]; monotherapies, Dunnett's test)
1 | CC(C)n1c(=O)n(C)c2cnc3cc(F)c(-c4ccc(OCCCN5CCCCC5)nc4)cc3c21 [AZD1390] | 14% | no statistically significant difference in antitumor activity | – | –
2 | C[C@@H]1COCCN1c1cc(C2([S@](C)(=N)=O)CC2)nc(-c2cc[nH]c3nccc2-3)n1 [AZD6738] | – | – | 29% | significantly inhibited tumor growth
